{"source": "patent US20100255994A1", "about": "“HERBICIDAL MIXTURE” (E.I. DU PONT DE NEMOURS AND COMPANY, priority 2007, published 2010)", "tested_on": "Digitaria nuda", "experiment": "Test A: postemergence greenhouse weed control, visual rating", "type": "in vivo", "conditions": "7 DAT", "method": "Plastic pots (10-cm square) were filled to the rim with a sandy loam soil having pH of 6.1, 1.4% organic matter and a cation exchange capacity (CEC) of 5.7 milliequivalents per 100 grams (meq/100 g). The soil was tamped firm to a uniform level of 2.5 cm below the rim of each pot. A measured amount of seeds of Digitaria nuda were scattered on the soil surface. Seeded pots were covered with approximately 50 mL of the same planting soil and tamped. The pots were then placed in a greenhouse and watered thoroughly 2-3 times daily as needed. A balanced fertilizer solution was injected into the watering system to provide 218 ppm of nitrogen. Artificial lighting was used to supplement natural light to produce a 14 h photoperiod. Greenhouse temperatures were targeted for 28.8° C. in the day and 19.8° C. at night.\nWhen the D. nuda plants reached the 3-4-leaf growth stage (8-12 cm height), the pots were sorted into test units for herbicide application. Treatments were replicated three times. The herbicides were diluted in a measured amount of water and then mixed using a magnetic stir bar for 10 minutes before aliquots were taken to make individual treatment solutions. Diuron was in the form of the DuPont product KARMEX, which is a wettable granule formulation containing 80 weight % active ingredient. Hexazinone was in the form of the DuPont product VELPAR DF, which is a wettable granule formulation containing 75 weight % active ingredient. A mixture of hexazinone and diuron in 11:39 weight ratio was in the form of the DuPont product VELPAR-K (VELPAR-K4) 60 WG, which is a wettable granule formulation containing 13.2 weight % hexazinone and 46.8 weight % diuron active ingredients. A mixture of hexazinone and diuron in 1:8 weight ratio was in the form of the DuPont product VELPAR-K8 (marketed in Brazil as ADVANCE Herbicide), which is a wettable granule formulation containing 6.7 weight % hexazinone and 53.3 weight % diuron active ingredients. Topramezone was in the form of the AMVAC product IMPACT, which is a suspension concentrate formulation containing 29.7% active ingredient. These products were applied alone and in combinations. Application rates of diuron and hexazinone were […] and 210 g ai ha^−1, respectively. The application rates of the VELPAR-K4 mixture of hexazinone and diuron (132 g a.i. hexazinone+468 g a.i. diuron/kg of formulated product) and VELPAR-K8 mixture of hexazinone and diuron (67 g a.i. hexazinone+533 g a.i. diuron kg of formulated product) were 1200 and 1800 g total a.i. ha^−1, respectively. Application rates of topramezone were 6, 12, 18 and 24 g a.i./ha. (“a.i.” means active ingredient.) The pots were then sprayed through a T-Jet 8002E nozzle using a stationary belt sprayer calibrated to deliver 281 L/ha at 276 kPa. Treatments were replicated three times.\nThe plants were returned to the greenhouse, and then control was visually evaluated relative to the control plants at 7 days after treatment (DAT). A numerical percent rating system was used to describe the response observed from each treatment on a scale of 0 to 100%, in which 0% indicates no response and 100% indicates plant death or near death. The reported results are the mean averages of the three replicates.\nColby's Equation was used to determine the herbicidal effects expected from the mixtures. Colby's Equation (Colby, S. R. “Calculating Synergistic and Antagonistic Responses of Herbicide Combinations,” Weeds, 15(1), pp 20-22 (1967)) calculates the expected additive effect of herbicidal mixtures, and for two active ingredients, or a pair of active ingredients (e.g., diuron+hexazinone) combined with an additional active ingredient (e.g., topramezone), is of the form: […]"}
{"smiles": "CN(C)C(=O)Nc1ccc(Cl)c(Cl)c1", "note": "[Diuron, N′-(3,4-dichlorophenyl)-N,N-dimethylurea]", "values": [{"measurement": "% Control Observed", "setting": "diuron 1800 g a.i./ha", "value": 20, "unit": "%"}]}
{"smiles": "CN(C)c1nc(=O)n(C2CCCCC2)c(=O)n1C", "note": "[Hexazinone]", "values": [{"measurement": "% Control Observed", "setting": "hexazinone 210 g a.i./ha", "value": 12, "unit": "%"}]}
{"smiles": "Cc1c(C(=O)c2cnn(C)c2O)ccc(S(C)(=O)=O)c1C1=NOCC1", "note": "[Topramezone]", "values": [{"measurement": "% Control Observed", "setting": "topramezone 6 g a.i./ha, 3-4-leaf stage, mean of 3 replicates", "value": 27, "unit": "%"}, {"measurement": "% Control Observed", "setting": "topramezone 12 g a.i./ha", "value": 28, "unit": "%"}, {"measurement": "% Control Observed", "setting": "topramezone 18 g a.i./ha", "value": 33, "unit": "%"}, {"measurement": "% Control Observed", "setting": "topramezone 24 g a.i./ha", "value": 40, "unit": "%"}]}
